The source of these data is US11472803B2, “7-substituted 1-aryl-naphthyridine-3-carboxylic acid amides and use thereof” (Bayer Aktiengesellschaft, priority 2016, dated 2022).

Structures are written as SMILES. pEC50: −log10 of the molar value.

For assay [1], the target named is T1, human M2 receptor (Homo sapiens, UniProt P08172).
T1 construct: expressed in transfected cells; host or cells: CHO-DUKX (CHO-DUKX-M2-GIRK)
T1 sequence (P08172 1-466): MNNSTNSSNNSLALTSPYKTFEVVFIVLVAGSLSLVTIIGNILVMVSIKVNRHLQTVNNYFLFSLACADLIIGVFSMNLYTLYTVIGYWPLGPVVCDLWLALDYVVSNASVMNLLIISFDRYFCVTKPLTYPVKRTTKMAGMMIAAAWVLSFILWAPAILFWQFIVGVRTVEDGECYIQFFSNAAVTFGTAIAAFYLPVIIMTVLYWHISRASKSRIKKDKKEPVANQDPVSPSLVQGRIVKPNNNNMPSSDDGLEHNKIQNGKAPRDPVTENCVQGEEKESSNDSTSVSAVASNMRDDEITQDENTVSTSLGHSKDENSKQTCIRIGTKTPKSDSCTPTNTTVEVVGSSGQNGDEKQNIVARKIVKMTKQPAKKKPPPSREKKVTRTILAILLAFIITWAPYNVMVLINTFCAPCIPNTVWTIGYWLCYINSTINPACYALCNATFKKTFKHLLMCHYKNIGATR
As to the kind of experiment: Functional M2-GIRK1/4 activation test: positive cooperativity (α factor), shift of acetylcholine dose-response curve. It is filed as cell-based. Conditions: Allosteric EC50 shift of acetylcholine 8-point dose-response curve; CHO-DUKX-M2-GIRK cells; α>1 = positive cooperativity. The method in brief: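 CHO-DUKX cells stably expressing human M2 and GIRK1/4, loaded with voltage-sensitive dye at room temperature; hyperpolarization followed by fluorescence. Each test-substance concentration, added first, combined with an 8-point acetylcholine dose-response; shift of the acetylcholine curve analysed by allosteric EC50 shift model to give cooperativity factor α.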

Assay [2] addresses T1, human M2 receptor. Kind of assay: Functional M2-GIRK1/4 activation test: allosteric potency (EC50) and efficiency at EC20 acetylcholine. The class given is cell-based. Conditions: CHO-DUKX-M2-GIRK cells; for pEC50: voltage-sensitive dye, acetylcholine at EC20, in some cases mean of two or more determinations; for Efficiency / Emax: boosting of the acetylcholine effect at EC20 acetylcholine concentration. The essentials: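 Positive allosteric modulation measured as boosting of an EC20 acetylcholine response: hyperpolarization via GIRK1/4 in CHO-DUKX-M2-GIRK cells, monitored by membrane-potential dye fluorescence over 60 s after agonist, compound preadded. Hill-function fit gives EC50 and efficiency.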

Consider `CC(NC(=O)c1cn(-c2c(F)cc(F)cc2F)c2nc(N3CC(CO)(CO)C3)c(F)cc2c1=O)C(F)(F)C(F)(F)F` (racemic) [Example 169, 7-[3,3-Bis(hydroxymethyl)azetidin-1-yl]-6-fluoro-4-oxo-N-[3,3,4,4,4-pentafluorobutan-2-yl]-1-(2,4,6-trifluorophenyl)-1,4-dihydro-1,8-naphthyridine-3-carboxamide], for which the “Cooperativity (alpha factor)” value at human M2 receptor [1] was 34. In addition, at human M2 receptor [2], the pEC50 is 8.42 and the Efficiency amounted to 99%.
`O=C(N[C@@H](C1CC1)C(F)(F)F)c1cn(-c2c(F)cc(F)cc2F)c2nc(N3CC(CO)(CO)C3)c(F)cc2c1=O` [Example 84, 7-[3,3-Bis(hydroxymethyl)azetidin-1-yl]-N-[(1S)-1-cyclopropyl-2,2,2-trifluoroethyl]-6-fluoro-4-oxo-1-(2,4,6-trifluorophenyl)-1,4-dihydro-1,8-naphthyridine-3-carboxamide]: on human M2 receptor [1], the “Cooperativity (alpha factor)” value was 39. Also, on human M2 receptor [2], the pEC50 was 8.08 and the Emax was determined as 88%.
Regarding `CC(C)(NC(=O)c1cn(-c2c(F)cc(F)cc2F)c2nc(N3C[C@@H](O)[C@H](O)C3)c(F)cc2c1=O)C(F)(F)F` [Example 23, 7-[(3R,4R)-3,4-dihydroxypyrrolidin-1-yl]-6-fluoro-4-oxo-N-(1,1,1-trifluoro-2-methylpropan-2-yl)-1-(2,4,6-trifluorophenyl)-1,4-dihydro-1,8-naphthyridine-3-carboxamide], the “Cooperativity (alpha factor)” value at human M2 receptor [1] was 41. In addition, at human M2 receptor [2], the pEC50 was 8.26 and the Emax is 100%.
`O=C(NC(C(F)(F)F)C(F)(F)F)c1cn(-c2ncc(F)cc2F)c2nc(N3C[C@@H](O)[C@H](O)C3)c(F)cc2c1=O` [Example 145, 1-(3,5-Difluoropyridin-2-yl)-7-[(3R,4R)-3,4-dihydroxypyrrolidin-1-yl]-6-fluoro-N-(1,1,1,3,3,3-hexafluoropropan-2-yl)-4-oxo-1,4-dihydro-1,8-naphthyridine-3-carboxamide]: on human M2 receptor [1], the “Cooperativity (alpha factor)” value was found to be 86. On human M2 receptor [2], this compound gave a pEC50 of 7.95 and an Emax of 100%.
Regarding `CC(C)C[C@@H](NC(=O)c1cn(-c2c(F)cc(F)cc2F)c2nc(N3C[C@@H](O)[C@H](O)C3)c(F)cc2c1=O)C(F)(F)F` [Example 14, 7-[(3R,45)-3,4-dihydroxypyrrolidin-1-yl]-6-fluoro-4-oxo-N-[(2R)-1,1,1-trifluoro-4-methylpentan-2-yl]-1-(2,4,6-trifluorophenyl)-1,4-dihydro-1,8-naphthyridine-3-carboxamide], the “Cooperativity (alpha factor)” value at human M2 receptor [1] came to 49. Further, on human M2 receptor [2], the pEC50 is 8.26 and the maximal effect (Emax) is 100%.
As to `O=C(NC(C1CC1)(C1CC1)C(F)(F)F)c1cn(-c2c(F)cc(F)cc2F)c2nc(N3CC(CO)(CO)C3)c(F)cc2c1=O` [Example 210, 7-[3,3-bis(hydroxymethyl)azetidin-1-yl]-N-(1,1-dicyclopropyl-2,2,2-trifluoroethyl)-6-fluoro-4-oxo-1-(2,4,6-trifluorophenyl)-1,4-dihydro-1,8-naphthyridine-3-carboxamide], the “Cooperativity (alpha factor)” value at human M2 receptor [1] is reported as 26. At human M2 receptor [2], this compound showed a negative logarithm of the EC50 (pEC50) of 8.68 and an Emax of 100%.
With `CCC(NC(=O)c1cn(-c2c(F)cc(F)cc2F)c2nc(N3CC(CO)(CO)C3)c(F)cc2c1=O)C(F)(F)C(F)(F)F` (racemic) [Example 172, 7-[3,3-Bis(hydroxymethyl)azetidin-1-yl]-6-fluoro-4-oxo-N-[1,1,1,2,2-pentafluoropentan-3-yl]-1-(2,4,6-trifluorophenyl)-1,4-dihydro-1,8-naphthyridine-3-carboxamide], the “Cooperativity (alpha factor)” value at human M2 receptor [1] stood at 35. Also, on human M2 receptor [2], the pEC50 was 8.48 and the Efficiency is given as 94%.
On to `O=C(NC(C1CC1)(C1CC1)C(F)(F)C(F)(F)F)c1cn(-c2c(F)cc(F)cc2F)c2nc(N3C[C@@H](O)[C@H](O)C3)c(F)cc2c1=O` [Example 208, N-(1,1-dicyclopropyl-2,2,3,3,3-pentafluoropropyl)-7-[(3R,4R)-3,4-dihydroxypyrrolidin-1-yl]-6-fluoro-4-oxo-1-(2,4,6-trifluorophenyl)-1,4-dihydro-1,8-naphthyridine-3-carboxamide], for which the “Cooperativity (alpha factor)” value at human M2 receptor [1] worked out at 27. Moreover, at human M2 receptor [2], the pEC50 is 8.74 and the Emax came to 100%.
Regarding `O=C(N[C@@H](C1CC1)C(F)(F)F)c1cn(-c2c(F)cc(F)cc2F)c2nc(N3C[C@@H](O)[C@H](O)C3)c(F)cc2c1=O` [Example 7, N-[(1S)-1-Cyclopropyl-2,2,2-trifluoroethyl]-7-[(3R,4R)-3,4-dihydroxypyrrolidin-1-yl]-6-fluoro-4-oxo-1-(2,4,6-trifluorophenyl)-1,4-dihydro-1,8-naphthyridine-3-carboxamide], on human M2 receptor [1], the “Cooperativity (alpha factor)” value was 57. On human M2 receptor [2], this compound had a pEC50 of 8.25 and an Emax of 93%.
For `CC(C)(CC(F)(F)F)NC(=O)c1cn(-c2c(F)cccc2F)c2nc(N3C[C@@H](O)[C@H](O)C3)c(F)cc2c1=O` [Example 1, 1-(2,6-Difluorophenyl)-7-[(3R,4R)-3,4-dihydroxypyrrolidin-1-yl]-6-fluoro-4-oxo-N-(4,4,4-tri-fluoro-2-methylbutan-2-yl)-1,4-dihydro-1,8-naphthyridine-3-carboxamide], the “Cooperativity (alpha factor)” value on human M2 receptor [1] was 35. Moreover, at human M2 receptor [2], the pEC50 is 7.68 and the Emax came out at 92%.
On to `O=C(NC(C1CC1)(C1CC1)C(F)(F)F)c1cn(-c2c(F)cc(F)cc2F)c2nc(N3C[C@@H](O)[C@H](O)C3)c(F)cc2c1=O` [Example 203, N-(1,1-dicyclopropyl-2,2,2-trifluoroethyl)-7-[(3R,4R)-3,4-dihydroxypyrrolidin-1-yl]-6-fluoro-4-oxo-1-(2,4,6-trifluorophenyl)-1,4-dihydro-1,8-naphthyridine-3-carboxamide], for which the “Cooperativity (alpha factor)” value on human M2 receptor [1] was determined as 29. For the same compound, on human M2 receptor [2], the pEC50 is 8.30 and the Emax is 100%.
For `CC(NC(=O)c1cn(-c2c(F)cc(F)cc2F)c2nc(N3CC(CO)(CO)C3)c(F)cc2c1=O)C(F)(F)C(F)(F)F` (racemic) [Example 170, 7-[3,3-Bis(hydroxymethyl)azetidin-1-yl]-6-fluoro-4-oxo-N-[3,3,4,4,4-pentafluorobutan-2-yl]-1-(2,4,6-trifluorophenyl)-1,4-dihydro-1,8-naphthyridine-3-carboxamide], the “Cooperativity (alpha factor)” value on human M2 receptor [1] came out at 38. At human M2 receptor [2], the pEC50 is 8.09 and the Efficiency worked out at 100%.
Turning to `C[C@H](NC(=O)c1cn(-c2c(F)cc(F)cc2Cl)c2nc(N3C[C@@H](O)[C@H](O)C3)c(F)cc2c1=O)C(F)(F)F` (single isomer, unassigned) [Example 226], at human M2 receptor [1], the “Cooperativity (alpha factor)” value stood at 31. In addition, at human M2 receptor [2], the pEC50 is 8.17 and the Efficiency is 93%.
As for `O=C(NC(C1CC1)C(F)(F)C(F)(F)F)c1cn(-c2c(F)cc(F)cc2F)c2nc(N3CC(CO)(CO)C3)c(F)cc2c1=O` (single isomer, unassigned) [Example 207, 7-[3,3-bis(hydroxymethyl)azetidin-1-yl]-N-[1-cyclopropyl-2,2,3,3,3-pentafluoropropyl]-6-fluoro-4-oxo-1-(2,4,6-trifluorophenyl)-1,4-dihydro-1,8-naphthyridine-3-carboxamide], the “Cooperativity (alpha factor)” value on human M2 receptor [1] is recorded as 24. On human M2 receptor [2], the pEC50 was 8.48 and the Efficiency was found to be 100%.
For `CC[C@H](NC(=O)c1cn(-c2c(F)cc(F)cc2F)c2nc(N3C[C@@H](O)[C@H](O)C3)c(F)cc2c1=O)C(F)(F)F` [Example 6, 7-[(3R,4R)-3,4-Dihydroxypyrrolidin-1-yl]-6-fluoro-4-oxo-N-[(2S)-1,1,1-trifluorobutan-2-yl]-1-(2,4,6-trifluorophenyl)-1,4-dihydro-1,8-naphthyridine-3-carboxamide], the “Cooperativity (alpha factor)” value at human M2 receptor [1] is 58. On human M2 receptor [2], the pEC50 was 8.21 and the Emax worked out at 94%.
Consider `C[C@H](NC(=O)c1cn(-c2c(F)cc(F)cc2F)c2nc(N3C[C@@H](O)[C@H](O)C3)c(F)cc2c1=O)C(F)(F)F` [Example 18, 7-[(3R,4R)-3,4-dihydroxypyrrolidin-1-yl]-6-fluoro-4-oxo-1-(2,4,6-trifluorophenyl)-N-[(2S)-1,1,1-trifluoropropan-2-yl]-1,4-dihydro-1,8-naphthyridine-3-carboxamide], for which the “Cooperativity (alpha factor)” value at human M2 receptor [1] is reported as 43. At human M2 receptor [2], the pEC50 was 7.69 and the Emax worked out at 99%.
